According to PubChem BioAssay (NCI):
Values joined by “and” are separate entries in the source; they are usually repeats but may differ in a detail not shown here. Equal entries are not always repeated.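 Compound exposure: 48 hours, 5 concentrations, 96-well plates. GI50 marks 50% less growth. The concentration for full growth arrest is given as TGI.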

Key:
Assay in all cases: DTP human tumour cell line panel, 48 h
[1] = system: HL-60(TB) leukemia
[2] = system: DU-145 prostate
[3] = system: HCT-15 colon
[4] = system: SF-268 CNS
[5] = system: HCT-116 colon
[6] = system: SN12C renal
[7] = system: UO-31 renal
[8] = system: K-562 leukemia
[9] = system: SR leukemia
[10] = system: MCF7 breast

Compound	GI50 [1] [µM]	TGI [1] [µM]	GI50 [2] [µM]	TGI [2]	GI50 [3] [µM]	TGI [3] [µM]	GI50 [4] [µM]	TGI [4] [µM]	GI50 [5] [µM]	TGI [5] [µM]	GI50 [6] [µM]	TGI [6] [µM]	GI50 [7] [µM]	TGI [7] [µM]	GI50 [8] [µM]	TGI [8] [µM]	GI50 [9] [µM]	TGI [9] [µM]	GI50 [10] [µM]	TGI [10] [µM]
O=c1oc2c(C(F)(F)F)cccc2cc1-c1csc(Nc2ccc(OCCF)cc2)n1	0.0248	0.0573	0.0462	> 50.8 µM	0.0389	> 100	0.086	> 60.5	0.032	0.54	0.271	> 64.4	0.0785	22.5	0.0348	> 100	0.0383	> 43.6	0.0427	> 37.6
COc1ccc(Cn2cc3c(c2-c2cc(OC)c(OC)c(OC)c2)CCc2cnoc2-3)cc1	0.204	0.647	0.309	> 100 µM	0.354	> 100	1.18	> 100	0.386	> 100	0.715	> 100	0.542	> 100	0.111	> 32.3	0.175	1.42	0.163	> 100
CCN(Cc1c(Cl)cccc1Cl)c1ccc(CO)c(Cl)c1	8.17	25.7	14.4	27.9 µM	10.4	23.5	15	28.8	< 0.0379	11.3	11.7	24	12.6	26.2	0.439	10.6	12.8	36.7	0.146	13.4
C/C(=N\NC(=S)N(C)C)c1ccccn1	0.000325	–	–	0.993 µM and 3.17 µM	0.00191	16.6	–	11.7	0.000123	–	0.0436	11.2	0.166	3.91	0.000104	> 41.3	0.00132	–	–	13.4
CCN(CC)c1ccc(/C=C/C=C2\NC(=O)NC2=O)cc1	3.06	> 100	3.36	25.4 µM	2.31	> 100	8.51	> 100	1.6	30.6	9.41	> 100	7.97	> 100	3.7	> 100	0.446	> 100	3.77	> 100
O=C(CCc1ccc(O)cc1)N/N=C/c1cc(Br)ccc1O	2.5	9.66	3.4	> 100 µM	2	> 100	2.23	24.4	4.34	> 100	4.76	73.6	1.34	7.19	3.12	28.6	2.52	9.66	3.31	90.2
Cc1ccc(-c2cc(O)c(-c3ccc(C)cc3C)cc2O)c(C)c1	10.3	> 100	11.2	28.2 µM	0.54	18.9	6.97	30.6	1.17	13.7	5.38	18.8	4.96	22.4	5.1	> 100	3.57	74.9	3.74	23.1
C[C@@H](Nc1nc(Nc2ccc(F)c(Cl)c2)nc2ccccc12)C1CC1	2.45	6.32	7.19	20.5 µM	2.39	8.14	6.43	26.8	1.49	3.2	3.25	14.4	2.62	14	2.82	9.75	1.63	5.26	2.84	13.3
N#CC1C=Cc2c(ccc3ccccc23)N1C(=O)c1ccccc1 (configuration not stated)	0.171	–	0.26	1.97 µM	0.184	> 100	1.05	> 100	0.0637	> 100	1.15	> 100	1.01	> 23.6	0.0537	> 100	0.1	–	0.0413	> 100
Nc1c(C(=O)Nc2cccc(Cl)c2Cl)sc2nc3c(cc12)C(=O)CCC3	> 100	> 100	> 100	> 100 µM	> 100	> 100	> 100	> 100	> 100	> 100	> 100	> 100	> 100	> 100	0.958	> 100	> 100	> 100	> 100	> 100
CC(C)=CCCC(C)C1=C(O)C(=O)C(C)=CC1=O (configuration not stated)	–	0.586	–	33.3 µM	–	5.75	–	56.6	–	12.8	–	34.6	–	21.3	–	4.37	–	5.39	–	31.1
O=C1OCC2=C1C(c1ccccc1)c1cc3c(cc1N2CCO)OCCO3 (configuration not stated)	0.118	0.406	0.304	2.73 µM	0.518	> 50	0.617	> 35.3	0.226	> 18.7	4.46	> 50	0.3	> 35.3	0.191	> 50	0.14	2.57	0.175	48.6
CC(=O)c1cc(O)c2ccccc2c1O	25.5	62.5	18.9	33 µM	20.5	44.1	18.8	33.4	17.6	34.5	17.5	36.3	12.1	25.5	23.1	67.6	28	> 100	14.8	36.9
Cc1cc(Nc2cc(N)ncn2)c(=O)n2c1C(=O)NC21CCCCC1	> 100	> 100	> 100	> 100 µM	> 100	> 100	76.9	> 100	> 100	> 100	> 100	> 100	51.8	> 100	> 100	> 100	> 100	> 100	> 100	> 100
Cc1ccc([C@]2(C)CC[C@H](C)/C2=C\Br)c(O)c1	3.47	12.6	4.1	17.2 µM	4.99	33.7	6.18	21.7	2.88	9.33	4.05	15.1	6.37	20.3	3.3	11.1	2.87	11.5	4.52	17.9
Cc1cccc(Cc2cnc(NC(=O)CCc3ccc(C)o3)s2)c1	0.161	0.44	0.38	> 95.8 µM	0.0729	> 100	0.903	> 100	0.242	> 100	0.525	> 100	0.589	> 100	0.0541	> 100	0.0543	> 100	0.0495	> 100
NC(=S)NN=C1CSSC1	0.516	6.81	4.12	16.2 µM	1.7	4.75	3.61	13.8	2.78	11.8	4.67	> 100	1.83	20.1	27	> 100	2.79	> 100	2.85	17.6
CCN(c1cc(C#CCN2CCOCC2)cc(C(=O)NCc2c(C)cc(C)[nH]c2=O)c1C)C1CCC(N(C)CCOC)CC1 (configuration not stated)	> 100	> 100	> 100	> 100 µM	> 100	> 100	> 100	> 100	> 100	> 100	> 100	> 100	> 100	> 100	> 100	> 100	27	> 100	> 100	> 100
O=C(O)c1cc2ccccc2c2c1C(=O)c1ccccc1-2	–	> 100	–	> 100 µM	–	> 100	–	> 100	–	> 100	–	> 100	–	> 100	–	> 100	–	> 100	–	> 100
O=C(NC(=O)c1ccccc1[N+](=O)[O-])Nc1ccc(Oc2ncc(Cl)cn2)c(C(F)(F)F)c1	–	0.125	–	> 100 µM	–	> 38.1	–	38.4	–	27.3	–	62.9	–	35.2	–	> 100	–	> 100	–	> 52.2
Cc1c(Cl)cccc1NC(=O)c1sc2nc3c(cc2c1N)CCCCC3	0.143	0.484	0.598	17.3 µM	0.195	> 50	0.426	> 50	0.196	> 50	1.44	> 50	1.65	> 50	0.166	> 50	0.174	> 50	0.105	> 50
Oc1c(CN2CCN(c3ccccc3)CC2)cc(Br)c2cccnc12	–	3.81	–	13.8 µM	–	> 100	–	> 71	–	> 28.4	–	> 37.6	–	> 30.5	–	> 40.8	–	2.25	–	> 100
CCCCCCCCCCCCCCCCCC(=O)Nc1ccn(C2OC(CO)C(O)C2O)c(=O)n1 (configuration not stated)	–	41.8	–	> 100 µM	–	> 100	–	> 100	–	> 100	–	> 100	–	> 79.3	–	> 100	–	56.4	–	> 100
COc1cc(-c2csc(NC(=O)Nc3cc(Cl)cc(Cl)c3)n2)cc(OC)c1OC	3.65	> 100	1.77	3.35 µM	2.33	6.97	2.81	10.6	1.6	2.97	1.78	3.28	1.67	3.3	4.4	> 100	2	6.61	2.01	5.42
